One series concerns the target T1, β-catenin (Homo sapiens, UniProt P35222).
T1 sequence (P35222 1-781): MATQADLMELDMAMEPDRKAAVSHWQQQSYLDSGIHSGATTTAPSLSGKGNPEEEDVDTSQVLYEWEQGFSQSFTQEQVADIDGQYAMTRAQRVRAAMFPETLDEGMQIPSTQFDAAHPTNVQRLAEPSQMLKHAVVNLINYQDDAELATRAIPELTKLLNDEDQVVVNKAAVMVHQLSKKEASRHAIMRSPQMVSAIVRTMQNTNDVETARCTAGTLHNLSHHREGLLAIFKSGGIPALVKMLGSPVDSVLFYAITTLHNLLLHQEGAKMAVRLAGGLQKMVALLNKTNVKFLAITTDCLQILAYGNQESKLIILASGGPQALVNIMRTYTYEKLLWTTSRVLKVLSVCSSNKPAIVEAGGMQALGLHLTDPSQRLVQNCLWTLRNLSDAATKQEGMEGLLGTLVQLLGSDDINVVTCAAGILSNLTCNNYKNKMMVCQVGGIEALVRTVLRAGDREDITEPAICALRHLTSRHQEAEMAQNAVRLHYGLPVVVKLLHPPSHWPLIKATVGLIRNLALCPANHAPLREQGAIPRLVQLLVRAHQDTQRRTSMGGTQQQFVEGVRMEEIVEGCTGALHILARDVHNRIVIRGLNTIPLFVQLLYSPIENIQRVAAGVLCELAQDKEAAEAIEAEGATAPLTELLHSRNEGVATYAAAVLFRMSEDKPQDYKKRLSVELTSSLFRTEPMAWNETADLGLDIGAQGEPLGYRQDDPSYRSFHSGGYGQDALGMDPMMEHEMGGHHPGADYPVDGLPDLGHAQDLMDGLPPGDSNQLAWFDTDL
Put plainly: KD50 measurement using competitive fluorescence polarization (FP) with labelled TCF4. Type of series: binding. The following applies: fluorescence polarization, β-catenin; for Kd: read-out: β-Cat FP KD. The procedure, abridged:
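Tracer: labelled TCF4, 5 nM; protein 100 nM; RT incubation. Competitor dilution series 10 nM–30 uM. FP read ex 470 / em 520 nm. n = 3.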

Series [1] has as its system colon cancer cell line (SW480). It counts as cell-based. The following applies: for Cell growth / viability: SW480, peptide added daily, 7 days. As to the method: Peptides inhibiting β-catenin cause decreased cell viability in a colon cancer cell line (SW480) and endometriosis lesions excised from a disease animal model. Peptides from libraries described herein are characterized in their effect on cell viability, as measured using a luminescent cell viability assay (Cell Titer-Glo®, Promega, Madison, WI) and expressed as IC50 in Table 5. Peptide inhibitors were tested for their ability to inhibit cellular proliferation across 2 different β-catenin expressing pathogenic cell lines: a colon cancer cell line (SW480) and/or mouse EMS lesion cells derived from mouse model of disease. Both cells lines are naturally known to express high levels of β-catenin. Cell lines were incubated with varying concentrations of peptide concentration and assessed for viability after day 5 and 7 days. The CellTiter-Glo® Luminescent Cell Viability Assay (Promega) is used to detect viable cells. IC50 values are graphed and calculated using Prism software (GraphPad) based on the cell viability readouts. IC50 is used to assess inhibition of cell proliferation by peptide concentration and is used to calculate the inhibitory effect of each peptide across each line. The results are used to assess the therapeutic potency of the peptides. In the SW480 cell line, peptide inhibitors from Family 1 (SEQ ID NO:264) and Family 2 (SEQ ID NO:396) were added daily to the cell growth medium. After 7 days, cell viability was assessed with the Cell-Titer Glo kit (Promega, Madison, WI). […] IC50 was calculated for peptides based on the concentration at which 50% viability was observed (Table 5).

Series [2] concerns the target Wnt-responsive promoter (TCF/LEF). Put plainly: Wnt-dependent luciferase reporter assay. Type of series: cell-based, murine. The procedure, abridged: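 EC50 (uM) derived from inhibition of luminescence in Wnt3a-stimulated murine 3T3 cells expressing luciferase under a TCF/LEF promoter, with peptides added across a concentration range and vehicle as control.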
The next series is described as follows: in vitro. The following applies: % Viability non-Wnt responsive cells.

SMILES strings stand for the structures. Where a SMILES comes first, the peptide text is derived from it. [ ]: non-standard residue; d: D form. The star is where a group is joined. ξ: configuration not given here. NMeW = CN[C@@H](Cc1c[nH]c2ccccc12)C(=O)O; Stearoyl = CCCCCCCCCCCCCCCCCC(=O)*; ξαMeV = CC(C)C(C)(N)C(=O)O; ξαMeS = CC(N)(CO)C(=O)O; GABA = NCCCC(=O)O; βAla = NCCC(=O)O Bounds are passed on as bounds.

In the case of `CCCCCCCCCCCCCC(=O)NCC(=O)N[C@@H](Cc1c[nH]c2ccccc12)C(=O)N(C)[C@@H](Cc1c[nH]c2ccccc12)C(=O)N[C@@H](CCC(=O)O)C(=O)N[C@@H](CO)C(=O)N[C@H](C(=O)N[C@@H](CC(C)C)C(=O)N[C@@H](CC(=O)O)C(=O)N[C@@H](CCC(=O)O)C(=O)N[C@@H](Cc1c[nH]cn1)C(=O)N[C@H](C(=O)N[C@@H](CCC(N)=O)C(=O)N[C@@H](CCCNC(=N)N)C(=O)N[C@H](C(=O)N[C@@H](Cc1c[nH]c2ccccc12)C(=O)NCC(=O)O)C(C)C)C(C)C)[C@@H](C)CC` [compound 1] (HELM PEPTIDE1{[CCCCCCCCCCCCCC(=O)[*:2]].G.W.[meW].E.S.I.L.D.E.H.V.Q.R.V.W.G}$$$$V2.0), on β-catenin, the “β-Cat FP Hill slope” value is 0.8 and the Kd is < 0.4 µM. In addition, the IC50 in series [1] came out at 18.5 µM.
As to `CC[C@H](C)[C@H](NC(=O)[C@H](CC(C)C)NC(=O)[C@@H](NC(=O)[C@H](Cc1c[nH]c2ccccc12)NC(=O)[C@H](CCSC)N(C)C)[C@@H](C)CC)C(=O)N[C@@H](CO)C(=O)N[C@@H](Cc1ccccc1)C(=O)N[C@@H](Cc1c[nH]c2ccccc12)C(=O)NCC(=O)O` [SEQ ID NO: 264] (HELM PEPTIDE1{[CSCC[C@@H](C(=O)[*:2])N(C)C].W.I.L.I.S.F.W.G}$$$$V2.0), in series [1], the “Cell growth / viability” value was “inhibited cell growth”.
`CC[C@H](C)[C@@H]1NC(=O)[C@@H](NC(=O)[C@H](CCC(N)=O)NC(=O)[C@H](C)N(C)C(=O)[C@H](Cc2c[nH]c3ccccc23)NC(=O)CCC(=O)O)CCCCNC(=O)CC[C@@H](C(=O)N[C@@H](Cc2c[nH]cn2)C(=O)N[C@H](C(=O)N[C@@H](CCC(N)=O)C(=O)N[C@@H](CCCNC(=N)N)C(=O)N[C@H](C(=O)N[C@@H](Cc2c[nH]c3ccccc23)C(=O)NCC(N)=O)C(C)C)C2CCCCC2)NC(=O)[C@H](CC(=O)O)NC(=O)[C@H](CC(C)C)NC1=O` [compound 405] (HELM PEPTIDE1{[O=C(O)CCC(=O)[*:2]].W.[meA].Q.K.I.L.D.E.H.[O=C([C@@H](N[*:1])C1CCCCC1)[*:2]].Q.R.V.W.G.[am]}$PEPTIDE1,PEPTIDE1,5:R3-9:R3$$$V2.0) displayed an EC50 in series [2] of 15 to 22.5 µM. In addition, on β-catenin, the “β-Cat FP Hill slope” value was 0.7 and the Kd is < 0.4 µM. Moreover, in series [1], the IC50 stood at 26.8 µM.
For `CCCCCCCCCCCCCCCCCC(=O)NCCC(=O)N[C@@H](Cc1c[nH]c2ccccc12)C(=O)N(C)[C@@H](Cc1c[nH]c2ccccc12)C(=O)N[C@@H](CCC(=O)O)C(=O)NC(C)(CO)C(=O)N[C@H](C(=O)N[C@@H](CC(C)C)C(=O)N[C@@H](CC(=O)O)C(=O)N[C@@H](CCC(=O)O)C(=O)N[C@@H](Cc1c[nH]cn1)C(=O)NC(C)(C(=O)N[C@@H](CCC(N)=O)C(=O)N[C@@H](CCCNC(=N)N)C(=O)N[C@H](C(=O)N[C@@H](Cc1c[nH]c2ccccc12)C(=O)NCC(=O)O)C(C)C)C(C)C)[C@@H](C)CC` (some centres unmarked) [compound 391] ({Stearoyl-βAla}-W[NMeW]E[ξαMeS]ILDEH[ξαMeV]QRVWG-OH), the EC50 in series [2] was < 7.5 µM. The IC50 in series [1] was found to be 4.8 µM.
For the compound `CCCCCCCCCCCCCCCC(=O)N[C@@H](Cc1c[nH]c2ccccc12)C(=O)N(C)[C@@H](Cc1c[nH]c2ccccc12)C(=O)N[C@@H](CCC(=O)O)C(=O)NC(C)(CO)C(=O)N[C@H](C(=O)N[C@@H](CC(C)C)C(=O)N[C@@H](CC(=O)O)C(=O)N[C@@H](CCC(=O)O)C(=O)N[C@@H](Cc1c[nH]cn1)C(=O)NC(C)(C(=O)N[C@@H](CCC(N)=O)C(=O)N[C@@H](CCCNC(=N)N)C(=O)N[C@H](C(=O)N[C@@H](Cc1c[nH]c2ccccc12)C(=O)NCC(=O)O)C(C)C)C(C)C)[C@@H](C)CC` (single isomer, unassigned) [SEQ ID NO: 396, Palmitoyl-W-NmeW-E-aMeS-ILDEH-aMeV-QRVWG-COOH], the “Cell growth / viability” value in series [1] was “inhibited cell growth”.
Consider `CCCCCCCCCCCCCCCCCC(=O)NCCCC(=O)N[C@@H](Cc1c[nH]c2ccccc12)C(=O)N(C)[C@@H](Cc1c[nH]c2ccccc12)C(=O)N[C@@H](CCC(=O)O)C(=O)NC(C)(CO)C(=O)N[C@H](C(=O)N[C@@H](CC(C)C)C(=O)N[C@@H](CC(=O)O)C(=O)N[C@@H](CCC(=O)O)C(=O)N[C@@H](Cc1c[nH]cn1)C(=O)NC(C)(C(=O)N[C@@H](CCC(N)=O)C(=O)N[C@@H](CCCNC(=N)N)C(=O)N[C@H](C(=O)N[C@@H](Cc1c[nH]c2ccccc12)C(=O)O)C(C)C)C(C)C)[C@@H](C)CC` (some centres unmarked) [compound 395] ({Stearoyl-GABA}-W[NMeW]E[ξαMeS]ILDEH[ξαMeV]QRVW-OH), for which the EC50 in series [2] is 7.5 to 15 µM. The compound also displayed an IC50 in series [1] of 6.8 µM.
In the case of `CC[C@H](C)[C@@H]1NC(=O)[C@H](Cc2c[nH]cn2)NC(=O)[C@H](CCC(=O)O)NC(=O)[C@H](Cc2ccccc2)NC(=O)[C@H](Cc2c[nH]c3ccccc23)NC(=O)[C@H](CO)NC(=O)[C@H]([C@@H](C)CC)NC(=O)[C@H](C)N(C)C(=O)[C@H](CC(C)C)NC(=O)[C@@H]2CCCN2C(=O)[C@H](CCSC)NC(=O)[C@@H](N)CCCCNC(=O)CNC1=O` [compound 29] (HELM PEPTIDE1{K.M.P.L.[meA].I.S.W.F.E.H.I.G}$PEPTIDE1,PEPTIDE1,1:R3-13:R2$$$V2.0; bridges inferred), in series [2], the EC50 is > 30 µM. Besides, on β-catenin, the “β-Cat FP Hill slope” value was 1.72 and the Kd lay in the range of 0.4 to 1 µM. The viability in “in vitro” worked out at 107%.
For the compound `CC[C@H](C)[C@@H]1NC(=O)[C@H](CC(C)C)NC(=O)[C@H](Cc2ccccc2)NC(=O)[C@H](Cc2c[nH]c3ccccc23)NC(=O)[C@H](CCSC)NC(=O)[C@H](CCCNC(=N)N)NC(=O)[C@H](CO)NC(=O)[C@H](CCSC)NC(=O)[C@@H](N)CCCCNC(=O)CNC(=O)[C@H](CCCNC(=N)N)NC(=O)[C@H](Cc2c[nH]c3ccccc23)NC(=O)[C@H](Cc2ccccc2)NC(=O)[C@H](CO)NC1=O` [compound 24] (HELM PEPTIDE1{K.M.S.R.M.W.F.L.I.S.F.W.R.G}$PEPTIDE1,PEPTIDE1,1:R3-14:R2$$$V2.0; bridges inferred), the EC50 in series [2] is > 30 µM. Moreover, on β-catenin, the “β-Cat FP Hill slope” value was 1 and the Kd was < 0.4 µM. In addition, in “in vitro”, the viability is 96.8%.
In series [2], `CCCCCCCCCCCCCCCCCC(=O)N[C@@H](Cc1c[nH]c2ccccc12)C(=O)N(C)[C@@H](Cc1c[nH]c2ccccc12)C(=O)N[C@@H](CCC(=O)O)C(=O)NC(C)(CO)C(=O)N[C@H](C(=O)N[C@@H](CC(C)C)C(=O)N[C@@H](CC(=O)O)C(=O)N[C@@H](CCC(=O)O)C(=O)N[C@@H](Cc1c[nH]cn1)C(=O)NC(C)(C(=O)N[C@@H](CCC(N)=O)C(=O)N[C@@H](CCCNC(=N)N)C(=O)N[C@H](C(=O)N[C@@H](Cc1c[nH]c2ccccc12)C(=O)NCC(=O)O)C(C)C)C(C)C)[C@@H](C)CC` (some centres unmarked) [compound 390] (Stearoyl-W[NMeW]E[ξαMeS]ILDEH[ξαMeV]QRVWG-OH) showed an EC50 of 7.5 to 15 µM. Also, in series [1], the IC50 is 4.7 µM.
